From US20060069132A1, “Azolecarboxamide herbicides” (priority 2004, published 2006)
Read-outs that look alike come from different tables or passages of the source.

Columns and labels:
rice = assay: Test B pre-/postemergence herbicide test; format: in vivo, Oryza sativa
Outline: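 Seeds were planted and treated preemergence with compounds formulated in a non-phytotoxic solvent mixture containing surfactant, while plants at the 1- to 4-leaf stage (2 to 18 cm) received postemergence sprays. Flooded paddy plants were grown to the 2-leaf stage. After 13 to 15 days in a greenhouse, injury was visually rated 0–100 against untreated controls.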

woolly cupgrass = assay: Test C pre-/postemergence herbicide test; format: in vivo, Eriochloa villosa
Excerpt: (§1) Seeds of plant species selected from bermudagrass (Cynodon dactylon (L.) Pers.), Surinam grass (Urochloa decumbens (Staph) R. D. Webster, previously named Brachiaria decumbens Stapf), cocklebur (Xanthium strumarium L.), corn (Zea mays L.), large crabgrass (Digitaria sanguinalis (L.) Scop.), woolly cupgrass (Eriochloa villosa (Thunb.) Kunth), giant foxtail (Setaria faberi Herrm.), goosegrass (Eleusine indica (L.) Gaertn.), johnsongrass (Sorghum halepense (L.) Pers.), kochia (Kochia scoparia (L.) Schrad.), lambsquarters (Chenopodium album L.), morningglory (Ipomoea coccinea L.), eastern black nightshade (Solanum ptycanthum Dunal), yellow nutsedge (Cyperus esculentus L.), pigweed (Amaranthus retroflexus L.), common ragweed (Ambrosia elatior L.), soybean (Glycine max (L.) Merr.), common (oilseed) sunflower (Helianthus annuus L.) and velvetleaf (Abutilon theophrasti Medik.) were planted and treated preemergence with test chemicals formulated in a non-phytotoxic solvent mixture which included a surfactant.
(§2) At the same time, plants selected from these crop and weed species and also winter barley (Hordeum vulgare L.), blackgrass (Alopecurus myosuroides Huds.), canarygrass (Phalaris minor Retz.), chickweed (Stellaria media (L.) Vill.), downy bromegrass (Bromus tectorum L.), green foxtail (Setaria viridis (L.) Beauv.), Italian ryegrass (Lolium multiflorum Lam.), wheat (Triticum aestivum L.), wild oat (Avenafatua L.) and windgrass (Apera spica-venti (L.) Beauv.) were treated with postemergence applications of some of the test chemicals formulated in the same manner. Plants ranged in height from 2 to 18 cm (1- to 4-leaf stage) for postemergence treatments. Plant species in the flooded paddy test consisted of rice (Oryza sativa), smallflower umbrella sedge (Cyperus difformis L.), ducksalad (Heteranthera limosa (Sw.) Willd.) and barnyardgrass (Echinochloa crus-galli (L.) Beauv.) grown to the 2-leaf stage for testing. Treated plants and controls were maintained in a greenhouse for 12 to 14 days, after which time all species were compared to controls and visually evaluated. Plant response ratings, summarized in Table C, are based on a scale of 0 to 100 where 0 is no effect and 100 is complete control. A dash (-) response means no test result.

large crabgrass = assay: Test C pre-/postemergence herbicide test; format: in vivo, Digitaria sanguinalis
Excerpt: as §1, §2

[1] = preemergence, 125 g ai/ha, 0 to 100 scale, 0 is no effect, 100 is complete control
[2] = Postemergence, 500 g ai/ha, scale 0 to 100
[3] = 500 g ai/ha, visual rating 0-100, 0 no effect, 100 complete control, preemergence
[4] = 125 g ai/ha, 0 = no effect, 100 = complete control, preemergence
[5] = 500 g ai/ha, visual rating, 0 = no effect, 100 = complete control, preemergence
[6] = Postemergence, 250 g ai/ha, scale 0 to 100, 0 no effect, 100 complete control
[7] = postemergence, 125 g ai/ha, scale 0 to 100
[8] = postemergence, 62 g ai/ha, scale 0 to 100
[9] = Postemergence, 500 g ai/ha, scale 0 to 100, 0 no effect, 100 complete control

Compound: CCn1nc(C(C)(C)C)cc1C(=O)Nc1cccc(C(=O)NC(C)C)c1 [Compound 51]
- Rice plant response rating (rice; Preemergence, 500 g ai/ha, scale 0 to 100): 50
- Plant response rating, Rice (rice; [1]): 0

Compound: CCn1nc(C(C)(C)C)cc1C(=O)Nc1cccc(C(=O)OCCF)c1 [Compound 82, 2-fluoroethyl 3-[[[3-(1,1-dimethylethyl)-1-ethyl-1H-pyrazol-5-yl]-carbonyl]amino]benzoate]
- plant injury at 125 g/ha (rice; Oryza sativa, pre-emergence, 336 h, preemergence, 125 g ai/ha, 0 to 100 scale, 0 is no effect, 100 is complete control, read-out: Plant response rating, Rice): 0%
- pest or weed control at 250 g/ha (woolly cupgrass; Eriochloa villosa, post-emergence, 312 h, Postemergence, 250 g ai/ha, scale 0 to 100, 0 no effect, 100 complete control, read-out: Plant response rating, Cupgrass, Woolly): 80%
- pest or weed control at 125 g/ha (woolly cupgrass; Eriochloa villosa, post-emergence, 312 h, postemergence, 125 g ai/ha, scale 0 to 100, read-out: Plant response rating, Cupgrass, Woolly): 60%
- Cupgrass, Woolly plant response rating (woolly cupgrass; [2]): 80
- pest or weed control at 250 g/ha (large crabgrass; Digitaria sanguinalis, post-emergence, 312 h, Postemergence, 250 g ai/ha, scale 0 to 100, 0 no effect, 100 complete control, read-out: Plant response rating, Crabgrass, Large): 0%
- pest or weed control at 125 g/ha (large crabgrass; Digitaria sanguinalis, post-emergence, 312 h, postemergence, 125 g ai/ha, scale 0 to 100, read-out: Plant response rating, Crabgrass, Large): 0%
- pest or weed control at 62 g/ha (large crabgrass; Digitaria sanguinalis, post-emergence, 312 h, postemergence, 62 g ai/ha, scale 0 to 100, read-out: Plant response rating, Crabgrass, Large): 0%
- Crabgrass, Large plant response rating (large crabgrass; [2]): 60

Compound: CCn1nc(C(C)(C)C)cc1C(=O)Nc1cccc(C(C)=O)c1 [Compound 122]
- Plant response rating, Rice (rice; [1]): 20

Compound: CCOc1cccc(NC(=O)c2cc(C(C)(C)C)nn2CC)c1 [Compound 136]
- Plant response rating, Rice (rice; [3]): 50

Compound: CCn1nc(C(C)(C)C)cc1C(=O)Nc1cccc(OCCCF)c1 [Compound 138]
- Plant response rating, Rice (rice; [3]): 40

Compound: CCn1nc(C(C)(C)C)cc1C(=O)Nc1cc(C(=O)NCC2CC2)ccn1 [Compound 155]
- Plant response rating, Rice (rice; [3]): 50
- Plant response rating, Rice (rice; [1]): 20

Compound: CCc1nc(C(C)(C)C)sc1C(=O)Nc1cccc(C(=O)NCCF)c1 [Compound 209]
- Rice plant response rating (0 to 100 scale) (rice; [4]): 30
- Plant response rating, Rice (rice; [3]): 70

Compound: CCc1nc(C(C)(C)C)sc1C(=O)Nc1cccc(C(=O)NC(C)(C)C)n1 [Compound 216]
- Rice plant response rating (0 to 100 scale) (rice; [4]): 0
- Plant response rating, Rice (rice; [5]): 70

Compound: CCN(CC)C(=O)c1cncc(NC(=O)c2cc(C(C)(C)C)nn2CC)c1 [Compound 261, 5-[[[3-(1,1-dimethylethyl)-1-ethyl-1H-pyrazol-5-yl]carbonyl]amino]-N,N-diethyl-3-pyridinecarboxamide]
- plant injury at 125 g/ha (rice; Oryza sativa, pre-emergence, 336 h, 125 g ai/ha, 0 = no effect, 100 = complete control, read-out: Rice plant response rating (0 to 100 scale)): 0%
- plant injury at 500 g/ha (rice; Oryza sativa, pre-emergence, 336 h, 500 g ai/ha, visual rating, 0 = no effect, 100 = complete control, read-out: Plant response rating, Rice): 60%

Compound: CCNC(=O)c1ccc(F)c(NC(=O)c2cc(C(C)(C)C)nn2CC)n1 [Compound 278]
- Rice plant response rating (0 to 100 scale) (rice; [4]): 30
- Plant response rating, Rice (rice; [5]): 80

Compound: CCn1nc(C(C)(C)C)cc1C(=O)Nc1nc(C(=O)N2CC=CC2)ccc1F [Compound 281]
- Rice plant response rating (0 to 100 scale) (rice; [4]): 20
- Plant response rating, Rice (rice; [5]): 60

Compound: C#CCNC(=O)c1cc(NC(=O)c2cc(C(C)(C)C)nn2CC)ccn1 [Compound 283]
- Rice plant response rating (0 to 100 scale) (rice; [4]): 0
- Plant response rating, Rice (rice; [5]): 0

Compound: CCn1nc(C(C)(C)C)cc1C(=O)Nc1cncc(C(=O)N2CC=CC2)n1 [Compound 290]
- Rice plant response rating (0 to 100 scale) (rice; [4]): 0
- Plant response rating, Rice (rice; [5]): 80

Compound: CCOC(=O)c1cccc(NC(=O)c2cc(C3(C)CC3)nn2CC)c1 [Compound 295]
- Rice plant response rating (0 to 100 scale) (rice; [4]): 10
- Plant response rating, Rice (rice; [5]): 20
- Plant response rating, Cupgrass, Woolly (woolly cupgrass; [6]): 15
- Plant response rating, Cupgrass, Woolly (woolly cupgrass; [7]): 15
- Plant response rating, Cupgrass, Woolly (woolly cupgrass; [8]): 10
- Plant response rating, Crabgrass, Large (large crabgrass; [6]): 35
- Plant response rating, Crabgrass, Large (large crabgrass; [7]): 30

Compound: C#CCNC(=O)c1cccc(NC(=O)c2sc(C(C)(C)C)nc2CC)c1 [Compound 319]
- Plant response rating (0 to 100 scale), Rice (rice; 125 g ai/ha, 0 is no effect, 100 is complete control, preemergence): 30
- Plant response rating, Rice (rice; [5]): 70

Compound: CCn1nc(C(C)(C)C)cc1C(=O)Nc1cc(OC(F)(F)F)ccc1F [Compound 338]
- Plant response rating, Cupgrass, Woolly (woolly cupgrass; [6]): 0
- Plant response rating, Cupgrass, Woolly (woolly cupgrass; [9]): 0
- Plant response rating, Cupgrass, Woolly (woolly cupgrass; [7]): 0
- Plant response rating, Cupgrass, Woolly (woolly cupgrass; [8]): 0
- Plant response rating, Crabgrass, Large (large crabgrass; [6]): 10
- Plant response rating, Crabgrass, Large (large crabgrass; [9]): 15
- Plant response rating, Crabgrass, Large (large crabgrass; [7]): 5
- Plant response rating, Crabgrass, Large (large crabgrass; [8]): 0
